Measured values as given in patent US20070142389A1, “PIPERIDINE DERIVATIVES” (PFIZER INC., priority 2005, published 2007).
Like-named read-outs stand apart in the source and are kept apart here.

Assays:
[1] = molecular target: T1, human norepinephrine transporter (Homo sapiens, UniProt P23975); assay: hNET Receptor Binding ([125I]-RTI-55 displacement, HEK-293 membranes)
T1 construct: expressed in transfected cells; host or cells: HEK-293
Method: (§1) Cell pastes of HEK-293 cells transfected with a human norepinephrine transporter cDNA were prepared. The cell pastes were resuspended in 400 to 700 mL of Krebs-HEPES assay buffer (25 mM HEPES, 122 mM NaCl, 3 mM KCl, 1.2 mM MgSO4, 1.3 mM CaCl2, and 11 mM glucose, pH 7.4) with a Polytron homogenizer at setting 7 for 30 seconds. Aliquots of membranes (5 mg/mL protein) were stored in liquid nitrogen until used.
The binding assay was set up in Beckman deep-well polypropylene plates with a total volume of 250 μL containing: compound of one of the Examples (10^−5M to 10^−12M), cell membranes, and 50 pM [^125I]-RTI-55 (Perkin Elmer, NEX-272; specific activity 2200 Ci/mmol). The reaction was incubated by gentle agitation for 90 minutes at room temperature and was terminated by filtration through Whatman GF/C filter plates using a Brandel 96-well plate harvester. Scintillation fluid (100 μL) was added to each well, and bound [^125I]-RTI-55 was determined using a Wallac Trilux Beta Plate Counter. Test compounds were run in duplicate, and specific binding was defined as the difference between binding in the presence and absence of 10 μM desipramine.
(§2) Excel and GraphPad Prism software were used for data calculation and analysis. IC50 values were converted to Ki values using the Cheng-Prusoff equation.

[2] = test system: capsaicin-induced mechanical allodynia in a rat; assay: rat model of capsaicin-induced mechanical allodynia; format: in vivo; settings: sc, read-out: % Inhibition of Allodynia
Method: Compounds of the present invention may be assayed for their ability to alleviate capsaicin-induced mechanical allodynia in a rat (e.g., Sluka (2002) J of Neuroscience, 22(13): 5687-5693). For example, a rat model of capsaicin-induced mechanical allodynia was carried out as follows:
On day 0, male Sprague-Dawley rats (about 150 g each) in the dark cycle were placed in suspended wire-bottom cages and allowed to acclimate for 0.5 hour in a darkened, quiet room. The day 0 paw withdrawal threshold (PWT) was determined on the left hind paw by Von Frey hair assessment using the Dixon up and down method. After assessment, the plantar muscle of the right hind paw was injected with 100 μL capsaicin (0.25% (w/v) in 10% ethanol, 10% Tween 80, in sterile saline). On day 6 the PWT of the left hind paw (contralateral from injection site) was determined for each animal. Animals from the day 6 prereads with PWT ≦11.7 g were considered allodynic responders and were regrouped so that each cage had similar mean PWT values. On day 7, responders were dosed subcutaneously with 10 mg compound/kg body weight, or with vehicle alone. The vehicle was phosphate buffered saline containing 2% Cremophor® EL (BASF Corp., Florham Park, N.J.). The contralateral PWT values were determined at 1 hour after the single dose, with the investigator blinded to the dosing scheme.
For each animal, the day 6 PWT value was subtracted from the 1 hour PWT value to give a delta PWT value that represents the change in PWT due to the 1 hour drug treatment. In addition, the day 6 PWT was subtracted from the day 0 PWT to give the baseline window of allodynia present in each animal. To determine % inhibition of allodynia of each animal normalized for vehicle controls, the following formula was used: % Inhibition of Allodynia =100× [(Delta PWT(drug)—mean Delta PWT(vehicle))/(Baseline—mean Delta PWT(vehicle))].
The mean percent inhibition of allodynia values (for eight animals assayed for each compound) +/− the standard error of the mean (SEM) are shown in Table 2.

[3] = molecular target: T2, human serotonin transporter (Homo sapiens, UniProt P31645); assay: hSERT Receptor Binding ([125I]-RTI-55 displacement, HEK-293 membranes)
T2 construct: expressed in transfected cells; host or cells: HEK-293
T2 sequence (P31645 whole entry): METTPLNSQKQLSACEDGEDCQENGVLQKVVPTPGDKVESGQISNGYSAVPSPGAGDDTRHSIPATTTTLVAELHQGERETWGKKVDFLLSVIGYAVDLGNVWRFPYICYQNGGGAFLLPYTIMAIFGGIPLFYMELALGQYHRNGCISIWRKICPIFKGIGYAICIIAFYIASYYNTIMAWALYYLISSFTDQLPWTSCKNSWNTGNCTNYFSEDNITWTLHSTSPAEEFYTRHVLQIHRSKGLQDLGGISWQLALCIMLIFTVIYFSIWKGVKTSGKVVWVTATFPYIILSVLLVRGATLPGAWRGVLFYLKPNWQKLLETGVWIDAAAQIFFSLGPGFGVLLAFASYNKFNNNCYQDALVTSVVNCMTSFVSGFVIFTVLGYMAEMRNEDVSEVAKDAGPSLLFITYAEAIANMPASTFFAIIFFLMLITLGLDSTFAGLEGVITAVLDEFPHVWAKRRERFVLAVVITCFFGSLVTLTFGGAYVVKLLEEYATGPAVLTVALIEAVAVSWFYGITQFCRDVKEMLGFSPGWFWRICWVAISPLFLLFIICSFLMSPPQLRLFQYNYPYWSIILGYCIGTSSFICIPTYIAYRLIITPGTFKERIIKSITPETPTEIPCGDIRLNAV
Method: as §1, with “serotonin” for “norepinephrine”, “Setting” for “setting”, “(about 2.5” for “(5”
Assays were set up in FlashPlates pre-coated with 0.1 % PEI in a total volume of 250 μL containing: compound of one of the Examples (10^−5M to 10^−12M), cell membanes, and 50 pM [^125l]-RTI-55 (Perkin Elmer, NEX-272; specific activity 2200 Ci/mmol). The reaction was incubated and gently agitated for 90 minutes at room temperature, and terminated by removal of assay volume. Plates were covered, and bound [^125I]-RTI-55 was determined using a Wallac Trilux Beta Plate Counter. Test compounds were run in duplicate, and specific binding was defined as the difference between binding in the presence and absence of 10 μM citalopram.
as §2

[4] = hNET, HEK-293 cell membranes, 50 pM [125I]-RTI-55, Ki from IC50 by Cheng-Prusoff, read-out: NET Ki
[5] = male Sprague-Dawley rats, 10 mg/kg subcutaneously, PWT 1 hour after single dose, mean +/- SEM of eight animals, normalized for vehicle
[6] = hSERT, HEK-293 cell membranes, 50 pM [125I]-RTI-55, Ki from IC50 by Cheng-Prusoff, read-out: SERT Ki

T1 sequence (P23975 whole entry): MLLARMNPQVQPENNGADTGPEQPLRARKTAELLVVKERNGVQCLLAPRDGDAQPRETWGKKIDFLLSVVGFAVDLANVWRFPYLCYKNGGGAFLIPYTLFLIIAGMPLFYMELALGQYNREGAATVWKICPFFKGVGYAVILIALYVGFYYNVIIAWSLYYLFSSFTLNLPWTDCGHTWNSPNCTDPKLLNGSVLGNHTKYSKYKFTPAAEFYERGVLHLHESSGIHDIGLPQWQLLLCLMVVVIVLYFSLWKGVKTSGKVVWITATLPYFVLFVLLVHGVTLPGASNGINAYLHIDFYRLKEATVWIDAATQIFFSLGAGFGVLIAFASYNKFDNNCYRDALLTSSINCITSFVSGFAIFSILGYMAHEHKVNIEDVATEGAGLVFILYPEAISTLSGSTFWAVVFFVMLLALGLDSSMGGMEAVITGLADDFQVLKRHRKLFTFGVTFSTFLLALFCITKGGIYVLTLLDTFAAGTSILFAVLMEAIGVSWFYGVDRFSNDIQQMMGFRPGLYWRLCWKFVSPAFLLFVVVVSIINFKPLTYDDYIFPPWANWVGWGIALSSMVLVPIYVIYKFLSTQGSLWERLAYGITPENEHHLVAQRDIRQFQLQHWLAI

| Ki [1, 4] [µM] | Ki [3, 6] [µM] | SMILES | inhibition in vivo at 10 mg/kg [2, 5] [%] | inhibition in vivo at 10 mg/kg ([2]; 1 h) [%] | Ki [1] [µM] | Ki [3] [µM] |
| --- | --- | --- | --- | --- | --- | --- |
| 3.29 | 0.00651 | CCOc1ncccc1OC[C@H]1CNCC[C@@H]1c1ccccc1 [Example 2, (3R,4S)-2-Ethoxy-3-(4-phenyl-piperidin-3-ylmethoxy)-pyridine] | 1.4 |  |  |  |
| 0.00418 | 0.0406 | CC(C)Oc1ncccc1OC[C@@H]1CNCC[C@H]1c1ccccc1 [Example 12, (3S,4R)-2-lsopropoxy-3-(4-phenyl-piperidin-3-ylmethoxy)-pyridine] | 66.4 |  |  |  |
| 0.00383 | 0.0243 | CCOc1ncccc1OC[C@H]1CNCC[C@@H]1c1ccccc1 (single isomer, unassigned) [Example 1] | 82.3 |  |  |  |
| 0.0121 | 0.174 | NC(=O)c1ccc(OC[C@@H]2CNCC[C@H]2c2ccccc2)cc1 [Example 38, (3S,4R)-4-(4-Phenyl-piperidin-3-ylmethoxy)-benzamide] | 0.2 |  |  |  |
| 0.00304 | 0.0175 | CCCOc1ncccc1OC[C@@H]1CNCC[C@H]1c1ccccc1 [Example 9, (3S,4R)-3-(4-Phenyl-piperidin-3-ylmethoxy)-2-propoxy-pyridine] | 29.5 |  |  |  |
| 0.0121 | 0.164 | COCCCOc1ncccc1OC[C@@H]1CNCC[C@H]1c1ccccc1 [Example 14, (3S,4R)-2-(3-Methoxy-propoxy)-3-(4-phenyl-piperidin-3-ylmethoxy)-pyridine] | 22.7 |  |  |  |
| 0.00334 | 0.0177 | COc1ncccc1OC[C@@H]1CNCC[C@H]1c1ccccc1 [Example 7, (3S,4R)-2-Methoxy-3-(4-phenyl-piperidin-3-ylmethoxy)-pyridine] | 67.3 |  |  |  |
| 0.00457 | 0.188 | COCCOc1ncccc1OC[C@@H]1CNCC[C@H]1c1ccccc1 [Example 11, (3S,4R)-2-(2-Methoxy-ethoxy)-3-(4-phenyl-piperidin-3-ylmethoxy)-pyridine] | 77.3 |  |  |  |
| 1.26 | 0.0638 | Cn1nc(C(F)(F)F)cc1OC[C@@H]1CNCC[C@H]1c1ccccc1 [Example 21, (3S,4R)-3-(2-Methyl-5-trifluoromethyl-2H-pyrazol-3-yloxymethyl)-4-phenyl-piperidine] |  |  |  |  |
| 6.26 | 0.0185 | COCCOc1ncccc1OC[C@H]1CNCC[C@@H]1c1ccccc1 [Example 10, (3R,4S)-2-(2-Methoxy-ethoxy)-3-(4-phenyl-piperidin-3-ylmethoxy)-pyridine] |  |  |  |  |
| 0.534 | 0.333 | CNC(=O)c1ccc(OC[C@@H]2CNCC[C@H]2c2ccccc2)c(OC)c1 [Example 30, (3S,4R)-3-Methoxy-N-methyl-4-(4-phenyl-piperidin-3-ylmethoxy)-benzamide] |  |  |  |  |
| 0.107 | 0.00249 | N#Cc1cccc(OC[C@@H]2CNCC[C@H]2c2ccccc2)c1 [Example 25, (3S,4R)-3-(4-Phenyl-piperidin-3-ylmethoxy)-benzonitrile] |  |  |  |  |
| 0.0086 | 0.0181 | NC(=O)c1ccc(OC[C@@H]2CNCC[C@H]2c2ccccc2)c(Cl)c1 [Example 33, (3S,4R)-3—CHloro-4-(4-phenyl-piperidin-3-ylmethoxy)-benzamide] |  |  |  |  |
| 0.293 | 0.68 | c1ccc([C@@H]2CCNC[C@H]2COc2cccnc2OC2CCOCC2)cc1 [Example 16, (3S,4R)-3-(4-Phenyl-piperidin-3-ylmethoxy)-2-(tetrahydro-pyran-4-yloxy)-pyridine] |  |  |  |  |
| 0.263 | 0.00347 | Cc1ccc(OC[C@@H]2CNCC[C@H]2c2ccccc2)cn1 [Example 22, (3S,4R)-2-Methyl-5-(4-phenyl-piperidin-3-ylmethoxy)-pyridine] |  |  |  |  |
|  |  | CCOc1ncccc1OC[C@@H]1CNCC[C@@H]1c1ccc(F)cc1 (single isomer, unassigned) [Example 57, (+)-cis-2-Ethoxy-3-[4-(4-fluoro-phenyl)-piperidin-3-ylmethoxy]-pyridine] |  |  | 0.193 | 0.0348 |
| 0.144 | 0.0291 | FC(F)(F)c1ccc(OC[C@@H]2CNCC[C@H]2c2ccccc2)nc1 [Example 19, (3S,4R)-2-(4-Phenyl-piperidin-3-ylmethoxy)-5-trifluoromethyl-pyridine] |  |  |  |  |
| 6.38 | 2.13 | Cc1nccnc1OC[C@@H]1CNCC[C@H]1c1ccccc1 [Example 28, (3S,4R)-2-Methyl-3-(4-phenyl-piperidin-3-ylmethoxy)-pyrazine] |  |  |  |  |
| 1.52 | 1.39 | COCc1cc(OC[C@@H]2CNCC[C@H]2c2ccccc2)[nH]n1 [Example 23, (3S,4R)-3-(5-Methoxymethyl-2H-pyrazol-3-yloxymethyl)-4-phenyl-piperidine] |  |  |  |  |
| 0.101 | 0.0137 | COc1cc(C#N)ccc1OC[C@@H]1CNCC[C@H]1c1ccccc1 [Example 36, (3S,4R) 3-Methoxy-4-(4-phenyl-piperidin-3-ylmethoxy)-benzonitrile] |  |  |  |  |
| 0.0132 | 0.0219 | CCCc1ncccc1OC[C@@H]1CNCC[C@H]1c1ccccc1 [Example 17, (3S,4R)-3-(4-Phenyl-piperidin-3-ylmethoxy)-2-propyl-pyridine] | 2.6 |  |  |  |
| 0.00388 | 0.00267 | COc1cccc(F)c1OC[C@@H]1CNCC[C@H]1c1ccccc1 [Example 41, (3S,4R)-3-(2-Fluoro-6-methoxy-phenoxymethyl)-4-phenyl-piperidine] |  |  |  |  |
| 0.00748 | 0.0238 | CCCCc1ncccc1OC[C@@H]1CNCC[C@H]1c1ccccc1 (racemic) [Example 61, (±)-trans-2-Butyl-3-(4-phenyl-piperidin-3-ylmethoxy)-pyridine] |  |  |  |  |
| 3.48 | 0.00052 | COc1ncccc1OC[C@H]1CNCC[C@@H]1c1ccccc1 [Example 6, (3R,4S)-2-Methoxy-3-(4-phenyl-piperidin-3-ylmethoxy)-pyridine] |  |  |  |  |
| 0.035 | 0.096 | CCOc1ccccc1OC[C@@H]1CNCC[C@@H]1c1ccccc1 (relative stereo) [Example 52, cis-3-(2-Ethoxy-phenoxymethyl)-4-phenyl-piperidine] |  |  |  |  |

| SMILES | Ki [1, 4] [µM] | Ki [3, 6] [µM] | inhibition in vivo at 10 mg/kg [2, 5] [%] | inhibition in vivo at 10 mg/kg ([2]; 1 h) [%] | Ki [1] [µM] | Ki [3] [µM] |
| --- | --- | --- | --- | --- | --- | --- |
| c1ccc([C@@H]2CCNC[C@H]2COc2ccnc3ccsc23)cc1 [Example 35, (3S,4R)-7-(4-Phenyl-piperidin-3-ylmethoxy)-thieno[3,2-b]pyridine] | 0.0146 | 0.0084 |  | 5.5 |  |  |
